We go through twelve molecules from paper PMC7011792 (Journal of Enzyme Inhibition and Medicinal Chemistry, 2017).

In general, IC50 refers to the point on the concentration scale where inhibition reaches its midpoint.

In test [1] the target is T1, AChE (EC 3.1.1.7) from electric eel (Electrophorus electricus, UniProt O42275).
T1 construct: purchased Sigma-Aldrich C3389
In words: biochemical. As to conditions: for IC50: AChE from electric eel, mean ± SEM of three experiments; for Selectivity index (SI) = BuChE IC50/AChE IC50: eqBuChE IC50 / eeAChE IC50. How it is done:
(§1) AChE (EC 3.1.1.7, Type VI-S, from electric eel, C3389; from human, C1682) and BuChE (EC 3.1.1.8, from equine serum, C0663; from human, B4186), 5,5'-dithiobis (2-nitrobenzoic acid) (DTNB, D218200), acetylthiocholine iodide (ATC, A5751), and butyrylthiocholine iodide (BTC, B3253) were obtained from Sigma-Aldrich (St. Louis, MO).
(§2) The inhibitory effects of the synthesised compounds in this paper were evaluated according to our previously reported method. […] ATC/BTC iodide solution (0.075 M) was prepared in deionised water. […] The assay buffer was prepared as follows: potassium dihydrogen phosphate (1.36 g, 10 mmol) was dissolved in 100 ml of water. The pH of the solution was then adjusted to 8.0 ± 0.1 with KOH. Stock solutions of the test samples were dissolved in ethanol to give a final concentration of 10^−4 M when diluted to the final volume of 3.32 ml. For each compound, a dilution series of at least five different concentrations (normally 10^−5–10^−9 M) were prepared.
(§3) For measurement, a cuvette containing 3.0 ml of phosphate buffer, 100 µL of AChE or BuChE, 100 µL of DTNB, and 100 µL of the test compound solution were added in sequence. The reaction was initiated after adding 20 µL of ATC or BTC, and the solution was mixed immediately. […] For the reference value, 100 µL of water replaced the test compound solution. For the blank control, additionally 100 µL of water replaced the enzyme solution. The measurement for each concentration was assayed in triplicate. GraphPad Prism 5 was used for data processing. The inhibition curve was fitted by plotting percentage enzyme activity (100% for the reference) versus logarithm of test compound concentration. The IC50 values were calculated according to the curve, and the data were shown in mean ± SEM.
(§4) The inhibitory effects on ChEs of all the target compounds were determined according to Ellman’s method. AChE from electrophorus electricus (eeAChE) and BuChE from equine serum (eqBuChE) were used in the assays.

Test [2] concerns the target T2, BuChE (EC 3.1.1.8) from horse serum (Equus caballus, UniProt P81908).
T2 construct: purchased Sigma-Aldrich C0663; host or cells: equine serum
In words: biochemical. As to conditions: BuChE from horse serum; mean ± SEM of three experiments. Type of test: biochemical. On the procedure: as §1, §2, §3, §4

The structures appear in SMILES notation.

T2 sequence (P81908 whole entry): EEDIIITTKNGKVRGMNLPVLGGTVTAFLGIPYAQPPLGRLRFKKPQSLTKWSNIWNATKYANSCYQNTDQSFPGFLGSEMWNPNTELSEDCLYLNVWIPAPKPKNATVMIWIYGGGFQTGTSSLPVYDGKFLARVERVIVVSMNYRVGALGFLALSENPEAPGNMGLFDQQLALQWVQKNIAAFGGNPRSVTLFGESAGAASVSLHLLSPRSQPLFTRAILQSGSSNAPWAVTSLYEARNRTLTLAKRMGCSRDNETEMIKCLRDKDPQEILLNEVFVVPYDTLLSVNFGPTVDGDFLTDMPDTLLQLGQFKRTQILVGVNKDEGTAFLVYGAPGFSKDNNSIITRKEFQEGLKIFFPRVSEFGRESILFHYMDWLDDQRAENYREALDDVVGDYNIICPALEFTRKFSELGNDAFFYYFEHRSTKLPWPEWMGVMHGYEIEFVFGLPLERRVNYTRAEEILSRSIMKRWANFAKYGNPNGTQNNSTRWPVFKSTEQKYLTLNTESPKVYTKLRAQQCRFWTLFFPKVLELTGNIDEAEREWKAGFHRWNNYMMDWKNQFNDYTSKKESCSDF
T1 sequence (O42275 24-633): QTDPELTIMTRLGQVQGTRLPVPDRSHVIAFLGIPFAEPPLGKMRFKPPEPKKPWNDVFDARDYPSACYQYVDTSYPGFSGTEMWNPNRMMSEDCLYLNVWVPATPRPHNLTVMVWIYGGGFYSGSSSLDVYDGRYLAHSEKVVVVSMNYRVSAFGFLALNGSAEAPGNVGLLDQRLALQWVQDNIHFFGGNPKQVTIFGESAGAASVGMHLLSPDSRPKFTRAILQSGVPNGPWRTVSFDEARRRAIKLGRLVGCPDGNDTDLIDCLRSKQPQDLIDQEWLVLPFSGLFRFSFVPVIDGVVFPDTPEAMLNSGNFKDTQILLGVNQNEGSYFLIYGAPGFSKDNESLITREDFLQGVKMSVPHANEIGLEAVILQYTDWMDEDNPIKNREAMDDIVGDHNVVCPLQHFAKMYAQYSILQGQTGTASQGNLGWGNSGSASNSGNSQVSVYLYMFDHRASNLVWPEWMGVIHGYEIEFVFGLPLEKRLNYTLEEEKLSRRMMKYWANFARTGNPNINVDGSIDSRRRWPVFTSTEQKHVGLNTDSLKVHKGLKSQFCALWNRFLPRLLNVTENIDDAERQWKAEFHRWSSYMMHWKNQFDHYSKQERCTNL

As for `O=C(/C=C/c1ccccc1C(F)(F)F)NCCCCCCNc1c2c(nc3ccccc13)CCCC2` [Compound 21, (E)-N-(6-((1,2,3,4-tetrahydroacridin-9-yl)amino)hexyl)-3–(2-(trifluoromethyl)phenyl)acrylamide], in test [1], the IC50 amounted to 41.7 ± 8.5 nM and the “Selectivity index (SI) = BuChE IC50/AChE IC50” value is on record as 0.04. The molecule further had an IC50 in test [2] of 2.4 ± 0.6 nM.
As to `O=C(/C=C/c1ccccc1Cl)NCCCCCCNc1c2c(nc3ccccc13)CCCC2` [Compound 25, (E)-3-(2-chlorophenyl)-N-(6-((1,2,3,4-tetrahydroacridin-9-yl)amino)hexyl)acrylamide], the IC50 in test [1] amounted to 14.2 ± 3.2 nM; in test [2], 8.7 ± 2.7 nM. For the same molecule, the “Selectivity index (SI) = BuChE IC50/AChE IC50” value in test [1] is listed as 0.6.
As for `COc1cc(/C=C/C(=O)NCCCCCCNc2c3c(nc4ccccc24)CCCC3)ccc1OCc1ccccc1` [Compound 36], the values for the IC50 in test [1] and in test [2] were 86.3 ± 30 nM and 29.8 ± 7.3 nM, respectively. The “Selectivity index (SI) = BuChE IC50/AChE IC50” value in test [1] is on record as 0.3.
As for `O=C(/C=C/c1ccccc1)NCCNc1c2c(nc3ccccc13)CCCC2` [Compound 9], the IC50 in test [1] amounted to 328 ± 122 nM; in test [2] it was 69.1 ± 27.3 nM. Further, the “Selectivity index (SI) = BuChE IC50/AChE IC50” value in test [1] turned out to be 0.2.
In the same order, the values of `Cc1cccc(/C=C/C(=O)NCCCCCCNc2c3c(nc4ccccc24)CCCC3)c1` [Compound 15, (E)-N-(6-((1,2,3,4-tetrahydroacridin-9-yl)amino)hexyl)-3-(m-tolyl)acrylamide] are 53.1 ± 6.9 nM, 37.3 ± 7.2 nM and 0.7.
Consider `COc1cc(/C=C/C(=O)NCCCCCCNc2c3c(nc4ccccc24)CCCC3)ccc1OCc1ccc(C)cc1` [Compound 38], for which, in test [1], the IC50 worked out at 128 ± 13.3 nM and the “Selectivity index (SI) = BuChE IC50/AChE IC50” value was found to be 0.5. The midpoint of inhibition in test [2], the IC50, lay at 58.4 ± 7.5 nM.
In the case of `O=C(/C=C/c1cccc(C(F)(F)F)c1)NCCCCCCNc1c2c(nc3ccccc13)CCCC2` [Compound 22, (E)-N-(6-((1,2,3,4-tetrahydroacridin-9-yl)amino)hexyl)-3–(3-(trifluoromethyl)phenyl)acrylamide], the IC50 in test [1] turned out to be 61.3 ± 16.7 nM; in test [2], 81.1 ± 15.7 nM. The “Selectivity index (SI) = BuChE IC50/AChE IC50” value in test [1] came to 1.3.
For the molecule `Cc1ccccc1/C=C/C(=O)NCCCCCCNc1c2c(nc3ccccc13)CCCC2` [Compound 14, (E)-N-(6-((1,2,3,4-tetrahydroacridin-9-yl)amino)hexyl)-3-(o-tolyl)acrylamide], in test [1], the IC50 worked out at 36 ± 12.3 nM and the “Selectivity index (SI) = BuChE IC50/AChE IC50” value was found to be 0.2. In test [2], this molecule displayed an IC50 of 6 ± 1.5 nM.
Take `COc1cc(/C=C/C(=O)NCCCCCCNc2c3c(nc4ccccc24)CCCC3)ccc1OCc1ccc(Cl)cc1` [Compound 37]: the IC50 was determined as 104 ± 26.4 nM in test [1] and 22.6 ± 7.1 nM in test [2].
`O=C(/C=C/c1ccc(Cl)c([N+](=O)[O-])c1)NCCCCCCNc1c2c(nc3ccccc13)CCCC2` [Compound 20, (E)-3-(4-chloro-3-nitrophenyl)-N-(6-((1,2,3,4-tetrahydroacridin-9-yl)amino)hexyl)acrylamide]: in test [1], half-maximal inhibition (IC50) required 6.2 ± 2 nM and the “Selectivity index (SI) = BuChE IC50/AChE IC50” value was 1.8. Also, the IC50 in test [2] came to 11.1 ± 2.2 nM.
As for `COc1ccc(/C=C/C(=O)NCCCCCCNc2c3c(nc4ccccc24)CCCC3)c(OC)c1OC` [Compound 31, (E)-N-(6-((1,2,3,4-tetrahydroacridin-9-yl)amino)hexyl)-3–(2,3,4-trimethoxyphenyl)acrylamide], in test [1], half-maximal inhibition (IC50) required 24.1 ± 8.1 nM and the “Selectivity index (SI) = BuChE IC50/AChE IC50” value was 0.3. The same molecule came in with an IC50 in test [2] of 8.1 ± 2 nM.
Taken in the same sequence, the figures for `O=C(/C=C/c1ccc(O)cc1)NCCCCCCNc1c2c(nc3ccccc13)CCCC2` [Compound 34, (E)-3-(4-hydroxyphenyl)-N-(6-((1,2,3,4-tetrahydroacridin-9-yl)amino)hexyl)acrylamide] were 2.2 ± 0.3 nM, 19.8 and 43.5 ± 9.3 nM.
